Measured values: PMC3433420 (PLoS ONE, 2012)
Residues, ends and D or L forms follow the SMILES beside them.

Legend:
SRC SH2 domain = molecular target: T1, SRC SH2 domain (Homo sapiens, UniProt P12931); test: FP saturation binding assay; details: protein SRC, high-confidence ErbB interactions, mean of replicate hits
T1 construct: between the c-Src SH2 domain and ErbB1 in our FP assay; 6X His; thioredoxin; made in house; host or cells: E. coli BL21(DE3)pLysS
Procedure, shortened: (§1)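 Rhodamine-labeled peptides (10 nM final) were titrated with 12 SH2 domain concentrations (0.002–10 µM) in 20 mM HEPES, 100 mM KCl, 0.1% Tween-20, 5 mM DTT, pH 7.8. After 20 min at room temperature in the dark, FP (ex 530/em 555 nm) was read. KDs came from nonlinear least-squares fits.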

PIK3R1-N SH2 domain = molecular target: T2, PIK3R1-N SH2 domain (Homo sapiens, UniProt P27986); test: biochemical; type: binding; details: protein PIK3R1-N; high-confidence ErbB interactions; mean of replicate hits
T2 construct: thioredoxin; made in house; host or cells: E. coli BL21(DE3)pLysS

PIK3R3-N SH2 domain = molecular target: T3, PIK3R3-N SH2 domain (Homo sapiens, UniProt Q92569); test: FP saturation binding assay; details: protein PIK3R3-N; high-confidence ErbB interactions; mean of replicate hits
T3 construct: 6X His; thioredoxin; made in house; host or cells: E. coli BL21(DE3)pLysS
Procedure, shortened: as §1

[1] = molecular target: T4, PIK3R3-NC tandem SH2 domains (Homo sapiens, UniProt Q92569); test: FP saturation binding assay; details: protein PIK3R3-NC; high-confidence ErbB interactions; mean of replicate hits
T4 construct: the tandem protein was included in our analysis with all internal amino acids linking the domains; 6X His; thioredoxin; made in house; host or cells: E. coli BL21(DE3)pLysS
Procedure, shortened: as §1

PTK6 SH2 domain = molecular target: T5, PTK6 SH2 domain (Homo sapiens, UniProt Q13882); test: FP saturation binding assay; details: protein PTK6; high-confidence ErbB interactions; mean of replicate hits
T5 construct: from the PTK6 SH2 domain; 6X His; thioredoxin; made in house; host or cells: E. coli BL21(DE3)pLysS
Procedure, shortened: as §1

YES1 SH2 domain = molecular target: T6, YES1 SH2 domain (Homo sapiens, UniProt P07947); test: FP saturation binding assay; details: high-confidence ErbB interactions
T6 construct: 6X His; thioredoxin; made in house; host or cells: BL21(DE3)pLysS E. coli
Procedure, shortened: as §1

PLCG1-C SH2 domain = molecular target: T7, PLCG1-C SH2 domain (Homo sapiens, UniProt P19174); test: biochemical; type: binding; details: protein PLCG1-C; high-confidence ErbB interactions; mean of replicate hits
T7 construct: The 6X His-tagged SH2 domain proteins used in the assay, PLCG1-C, SHC4, VAV2; thioredoxin; made in house; host or cells: E. coli BL21(DE3)pLysS
T7 sequence (P19174 668-756 limits assumed): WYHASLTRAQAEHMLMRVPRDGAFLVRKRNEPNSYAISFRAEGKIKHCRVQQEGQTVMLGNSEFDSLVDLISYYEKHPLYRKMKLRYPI

GRAP2 SH2 domain = molecular target: T8, GRAP2 SH2 domain (Homo sapiens, UniProt O75791); test: FP saturation binding assay
T8 sequence (O75791 58-149 limits assumed): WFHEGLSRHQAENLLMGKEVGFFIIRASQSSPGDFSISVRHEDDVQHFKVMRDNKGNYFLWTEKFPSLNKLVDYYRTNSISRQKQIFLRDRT

[2] = molecular target: PIK3R2-NC tandem SH2 domains (Homo sapiens, UniProt O00459); test: FP saturation binding assay
SH2D2A SH2 domain = SH2D2A SH2 domain (Homo sapiens, UniProt Q9NP31); test: FP saturation binding assay
[3] = molecular target: T9, PLCG1-NC tandem SH2 domains (Homo sapiens, UniProt P19174); test: FP saturation binding assay; details: Protein PLCG1-NC; FP saturation binding, high-confidence ErbB interactions; mean over replicate hits
T9 construct: the tandem protein was included in our analysis with all internal amino acids linking the domains; 6X His; thioredoxin; made in house; host or cells: E. coli BL21(DE3)pLysS
T9 sequence (P19174 550-756 limits assumed): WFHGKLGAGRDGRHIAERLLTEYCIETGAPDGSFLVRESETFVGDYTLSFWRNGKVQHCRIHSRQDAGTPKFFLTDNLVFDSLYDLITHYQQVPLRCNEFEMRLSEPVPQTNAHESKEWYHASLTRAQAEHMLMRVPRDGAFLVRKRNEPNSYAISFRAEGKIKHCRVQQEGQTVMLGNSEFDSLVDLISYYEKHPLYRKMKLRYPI

RASA1-N SH2 domain [4] = molecular target: T10, RASA1-N SH2 domain (Homo sapiens, UniProt P20936); test: FP saturation binding assay
T10 sequence (P20936 181-272 limits assumed): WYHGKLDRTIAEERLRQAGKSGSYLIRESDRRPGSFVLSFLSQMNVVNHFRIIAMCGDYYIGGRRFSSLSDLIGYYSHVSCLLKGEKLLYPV

SHC1-PTB domain = molecular target: T11, SHC1-PTB domain (Homo sapiens, UniProt P29353); test: FP saturation binding assay
T11 sequence (P29353 156-339 limits assumed): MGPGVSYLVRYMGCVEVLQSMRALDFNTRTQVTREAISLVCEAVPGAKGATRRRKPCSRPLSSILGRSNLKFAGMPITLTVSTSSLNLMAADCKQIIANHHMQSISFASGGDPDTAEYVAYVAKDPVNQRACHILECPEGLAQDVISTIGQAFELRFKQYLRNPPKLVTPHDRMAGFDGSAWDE

GRB7 SH2 domain = GRB7 SH2 domain (Homo sapiens, UniProt Q14451); test: FP saturation binding assay; details: KD for GRB7, FP saturation assay
RASA1-N SH2 domain [5] = molecular target: T10, RASA1-N SH2 domain; test: FP competition assay; type: binding; parameters: 6X His; thioredoxin; made in house; host or cells: E. coli BL21(DE3)pLysS; details: RASA1N; labeled peptide ErbB2pY1196; Fig. 3 graph A; read-out: Ki (obs)
Procedure: Unlabeled phosphopeptides were synthesized with some modifications to the previously described protocol. […] Unlabeled competitor peptides were prepared at 11 serial 1∶3 dilutions in assay buffer; one control with no unlabeled competitor peptides was also included with each experimental set. The fluorescent peptide, protein, and unlabeled peptide mixtures were allowed to incubate for a minimum of 20 minutes in 384-well plates and polarization signals were measured using the Analyst GT multimode reader as previously described above. Inhibition curves were constructed by four-parameter log-logistic regression using the “drc” package in R with the parameters for maximum and minimum fluorescence fixed according to Z’ factor positive and negative control values. IC50 values were estimated from these fits under a one-site competition binding model and Ki calculated according to the equation developed by.

NCK2 SH2 domain = NCK2 SH2 domain (Homo sapiens, UniProt O43639); test: FP saturation binding assay
[6] = molecular target: T12, PTPN11-NC tandem SH2 domains (Homo sapiens, UniProt Q06124); test: FP saturation binding assay
T12 sequence (Q06124 6-216 limits assumed): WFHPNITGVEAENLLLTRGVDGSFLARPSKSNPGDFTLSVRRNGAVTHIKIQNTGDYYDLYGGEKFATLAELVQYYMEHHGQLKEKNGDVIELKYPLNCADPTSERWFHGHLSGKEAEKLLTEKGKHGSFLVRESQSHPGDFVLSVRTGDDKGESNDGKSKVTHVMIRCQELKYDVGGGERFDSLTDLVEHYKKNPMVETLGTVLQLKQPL

SH2D1A SH2 domain = molecular target: T13, SH2D1A SH2 domain (Homo sapiens, UniProt O60880); test: FP saturation binding assay
T13 sequence (O60880 6-104 limits assumed): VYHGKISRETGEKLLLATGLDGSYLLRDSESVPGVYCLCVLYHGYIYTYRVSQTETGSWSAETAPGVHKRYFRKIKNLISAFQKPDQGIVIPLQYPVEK

SH2D1B SH2 domain = molecular target: T14, SH2D1B SH2 domain (Homo sapiens, UniProt O14796); test: FP saturation binding assay
T14 sequence (O14796 5-101 limits assumed): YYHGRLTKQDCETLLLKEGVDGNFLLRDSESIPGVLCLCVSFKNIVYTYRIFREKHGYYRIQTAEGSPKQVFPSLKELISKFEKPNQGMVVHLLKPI

[7] = molecular target: SYK-NC tandem SH2 domains (Homo sapiens, UniProt P43405); test: FP saturation binding assay

T6 sequence (P07947 158-255 limits assumed): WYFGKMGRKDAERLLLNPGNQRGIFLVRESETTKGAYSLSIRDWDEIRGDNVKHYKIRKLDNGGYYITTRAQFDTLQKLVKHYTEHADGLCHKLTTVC
Chain of PIK3R2-NC tandem SH2 domains (O00459 330-716 limits assumed): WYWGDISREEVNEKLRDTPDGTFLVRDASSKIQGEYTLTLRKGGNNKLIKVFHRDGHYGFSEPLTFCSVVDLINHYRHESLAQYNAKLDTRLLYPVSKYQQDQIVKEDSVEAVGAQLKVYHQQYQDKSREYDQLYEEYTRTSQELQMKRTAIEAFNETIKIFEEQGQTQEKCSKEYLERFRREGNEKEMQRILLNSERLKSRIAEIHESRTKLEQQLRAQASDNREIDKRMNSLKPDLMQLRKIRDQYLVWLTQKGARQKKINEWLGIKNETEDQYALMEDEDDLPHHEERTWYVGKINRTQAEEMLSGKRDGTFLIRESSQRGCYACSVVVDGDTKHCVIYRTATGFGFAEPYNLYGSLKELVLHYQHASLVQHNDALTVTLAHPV
T1 sequence (P12931 151-248 limits assumed): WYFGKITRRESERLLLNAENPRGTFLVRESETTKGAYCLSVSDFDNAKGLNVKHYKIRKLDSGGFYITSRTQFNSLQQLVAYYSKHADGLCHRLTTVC
Chain of GRB7 SH2 domain (Q14451 431-527 limits assumed): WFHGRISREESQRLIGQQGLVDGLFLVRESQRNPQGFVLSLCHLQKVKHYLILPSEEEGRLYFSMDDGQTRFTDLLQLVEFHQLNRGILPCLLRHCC
Chain of NCK2 SH2 domain (O43639 285-380 limits assumed): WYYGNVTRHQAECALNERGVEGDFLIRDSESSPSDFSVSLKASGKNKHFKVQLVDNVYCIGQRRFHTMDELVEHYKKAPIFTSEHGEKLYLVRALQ
T5 sequence (Q13882 78-170 limits assumed): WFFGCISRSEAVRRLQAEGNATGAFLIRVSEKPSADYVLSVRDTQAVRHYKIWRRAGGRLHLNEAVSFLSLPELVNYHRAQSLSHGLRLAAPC
T2 sequence (P27986 333-428 limits assumed): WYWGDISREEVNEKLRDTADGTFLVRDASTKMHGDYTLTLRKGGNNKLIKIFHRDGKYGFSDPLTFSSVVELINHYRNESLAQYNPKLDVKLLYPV
Chain of SH2D2A SH2 domain (Q9NP31 95-186 limits assumed): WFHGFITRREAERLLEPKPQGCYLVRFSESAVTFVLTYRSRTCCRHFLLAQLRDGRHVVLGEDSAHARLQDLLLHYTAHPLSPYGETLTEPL

CC[C@H](C)[C@H](NC(=O)[C@@H](N)CCC(=O)O)C(=O)NCC(=O)N[C@@H](Cc1c[nH]cn1)C(=O)N[C@@H](CO)C(=O)N1CCC[C@H]1C(=O)N1CCC[C@H]1C(=O)N1CCC[C@H]1C(=O)N[C@@H](C)C(=O)N[C@@H](Cc1ccc(OP(=O)(O)O)cc1)C(=O)N[C@H](C(=O)N1CCC[C@H]1C(=O)N[C@@H](CCSC)C(=O)N[C@@H](CO)C(=O)NCC(=O)N[C@@H](CC(N)=O)C(=O)N[C@@H](CCC(N)=O)C(=O)N[C@@H](CC(=O)O)C(=O)O)[C@@H](C)O [ErbB4 1056 18-mer] (HELM PEPTIDE1{E.I.G.H.S.P.P.P.A.[O=C([C@H](Cc1ccc(OP(=O)(O)O)cc1)N[*:1])[*:2]].T.P.M.S.G.N.Q.D}$$$$V2.0)
Kd (SRC SH2 domain; FP): 9470 nM

CC(C)C[C@H](NC(=O)[C@H](Cc1ccc(O)cc1)NC(=O)[C@H](CC(C)C)NC(=O)[C@@H]1CCCN1C(=O)[C@H](CCC(=O)O)NC(=O)[C@H](CC(N)=O)NC(=O)[C@@H](NC(=O)[C@H](Cc1ccc(OP(=O)(O)O)cc1)NC(=O)[C@H](CCC(=O)O)NC(=O)[C@H](CC(=O)O)NC(=O)[C@H](CCC(=O)O)NC(=O)[C@H](C)NC(=O)[C@H](CCCCN)NC(=O)[C@@H]1CCCN1C(=O)[C@@H]1CCCN1C(=O)CNC(=O)[C@@H](N)CC(N)=O)C(C)C)C(=O)N[C@@H](CC(=O)O)C(=O)O [ErbB4 1202 18-mer] (HELM PEPTIDE1{N.G.P.P.K.A.E.D.E.[O=C([C@H](Cc1ccc(OP(=O)(O)O)cc1)N[*:1])[*:2]].V.N.E.P.L.Y.L.D}$$$$V2.0)
Kd (PIK3R1-N SH2 domain): 5390 nM | Kd (PIK3R3-N SH2 domain): 2410 nM | Kd [1]: 1210 nM | Kd (PTK6 SH2 domain): 2040 nM | Kd (SRC SH2 domain): 2300 nM | Kd (YES1 SH2 domain; protein YES1, mean of replicate hits): 8400 nM | Kd (PLCG1-C SH2 domain): 1920 nM | Kd (GRAP2 SH2 domain): 2290 nM | Kd [2]: 1840 nM | Kd (SH2D2A SH2 domain): 6000 nM

CC(C)C[C@H](NC(=O)[C@H](CC(N)=O)NC(=O)[C@H](CC(=O)O)NC(=O)[C@@H](N)Cc1ccccc1)C(=O)N[C@@H](Cc1ccc(OP(=O)(O)O)cc1)C(=O)N[C@@H](Cc1ccc(O)cc1)C(=O)N[C@@H](Cc1c[nH]c2ccccc12)C(=O)N[C@@H](CC(=O)O)C(=O)N[C@@H](CCC(N)=O)C(=O)N[C@@H](CC(=O)O)C(=O)N1CCC[C@H]1C(=O)N1CCC[C@H]1C(=O)N[C@@H](CCC(=O)O)C(=O)N[C@@H](CC(=O)O)C(=O)O [ErbB2 1221 13-mer] (HELM PEPTIDE1{F.D.N.L.[O=C([C@H](Cc1ccc(OP(=O)(O)O)cc1)N[*:1])[*:2]].Y.W.D.Q.D.P.P.E.D}$$$$V2.0)
Kd (YES1 SH2 domain; Protein YES1, FP saturation binding, mean over replicate hits): 2410 nM | Kd [3]: 2270 nM | Kd [2]: 11200 nM | Kd (RASA1-N SH2 domain [4]): 1120 nM | Kd (SHC1-PTB domain): 1980 nM

CSCC[C@H](NC(=O)[C@H](Cc1ccc(O)cc1)NC(=O)[C@H](CCC(=O)O)NC(=O)[C@H](Cc1ccc(OP(=O)(O)O)cc1)NC(=O)[C@H](CC(=O)O)NC(=O)[C@H](CCC(=O)O)NC(=O)[C@H](CC(=O)O)NC(=O)[C@@H]1CCCN1)C(=O)N[C@@H](CC(N)=O)C(=O)N[C@@H](CCCNC(=N)N)C(=O)N[C@@H](CCC(N)=O)C(=O)N[C@@H](CCCNC(=N)N)C(=O)N[C@@H](CC(=O)O)C(=O)O [ErbB3 pY1260] (HELM PEPTIDE1{P.D.E.D.[O=C([C@H](Cc1ccc(OP(=O)(O)O)cc1)N[*:1])[*:2]].E.Y.M.N.R.Q.R.D}$$$$V2.0)
Kd (GRB7 SH2 domain): ≤ 100 nM | Ki (RASA1-N SH2 domain [4]; read-out: Ki ( exp FP), competing peptide, RASA1N, Ki expected from FP, NI = no interaction): > 20000 nM | Ki (RASA1-N SH2 domain [5]): 38800 nM

CC(C)C[C@H](NC(=O)[C@H](Cc1ccc(OP(=O)(O)O)cc1)NC(=O)[C@H](CCC(=O)O)NC(=O)[C@@H]1CCCN1C(=O)[C@H](CC(N)=O)NC(=O)[C@@H](N)CCC(=O)O)C(=O)N[C@H](C(=O)N1CCC[C@H]1C(=O)N[C@@H](CCC(N)=O)C(=O)NCC(=O)NCC(=O)N[C@@H](C)C(=O)N[C@@H](CC(=O)O)C(=O)O)[C@@H](C)O [ErbB2 1196 13-mer]
Kd (NCK2 SH2 domain): 3720 nM

CC[C@H](C)[C@H](NC(=O)[C@H](Cc1c[nH]c2ccccc12)NC(=O)[C@H](CC(C)C)NC(=O)CNC(=O)[C@H](CCCCN)NC(=O)[C@H](Cc1ccc(OP(=O)(O)O)cc1)NC(=O)[C@@H](NC(=O)[C@@H](NC(=O)CNC(=O)[C@@H](N)Cc1ccccc1)[C@@H](C)O)C(C)C)C(=O)N1CCC[C@H]1C(=O)N[C@@H](CCC(=O)O)C(=O)N[C@@H](CC(=O)O)C(=O)O [ErbB1 pY727] (HELM PEPTIDE1{F.G.T.V.[O=C([C@H](Cc1ccc(OP(=O)(O)O)cc1)N[*:1])[*:2]].K.G.L.W.I.P.E.D}$$$$V2.0)
Kd [6]: 3150 nM | Kd (SH2D1A SH2 domain): 2710 nM | KD range of recruitment of SH2D1A (SHD1A [sic]) (SH2D1A SH2 domain; FP saturation assay): in the nM KD range | Kd (SH2D1B SH2 domain): 240 nM | KD range of recruitment of SH2D1B (SH2D1B SH2 domain; FP saturation assay): in the nM KD range | Kd [7]: 11500 nM
